# Results taken from PMC8514817, “De Novo Design of Antimicrobial Peptides With a Special Charge Pattern and Their Application in Combating Plant Pathogens” (Frontiers in Plant Science, 2021).
# Where a SMILES comes first, the peptide text is derived from it. The star is where a group is joined. Myristoyl = CCCCCCCCCCCCCC(=O)*
# What was measured:
# Pcc [1] = type: cell-based, Pectobacterium carotovorum subsp. carotovorum
# Pcc [2] = settings: 48 h
# Ech = settings: 48 h
# Xcc Xcc17 = settings: Table 4, rich medium, up to 32 μg/ml; for MIC: 48 h, no visible growth; for MBC: spotted on rich agar 48 h, no colony
# Atu C58C1 = settings: Table 4, rich medium, up to 32 μg/ml; for MIC: 48 h, no visible growth; for MBC: spotted on rich agar 48 h, no colony
Compound,membranolytic effect (SYTOX Green staining) (Pcc [1]),MBC (Pcc [2]) [µg/mL],MIC (Pcc [2]) [µg/mL],MBC (Ech) [µg/mL],MIC (Ech) [µg/mL],MIC (Xcc Xcc17) [µg/mL],MBC (Xcc Xcc17) [µg/mL],MIC (Atu C58C1) [µg/mL],MBC (Atu C58C1) [µg/mL]
CCCCCCCCCCCCCC(=O)N[C@@H](Cc1c[nH]c2ccccc12)C(=O)N[C@@H](CCCCN)C(=O)N[C@@H](CCCCN)C(=O)N[C@@H](CC(C)C)C(=O)N[C@@H](CCCCN)C(=O)N[C@@H](CCCCN)C(=O)N[C@@H](CC(C)C)C(=O)N[C@@H](CC(C)C)C(=O)N[C@@H](CCCCN)C(=O)N[C@@H](CCCCN)C(=O)N[C@@H](CC(C)C)C(=O)N[C@@H](CCCCN)C(=O)N[C@@H](CCCCN)C(=O)N[C@@H](CC(C)C)C(N)=O [pepD2M] (Myristoyl-WKKLKKLLKKLKKL-NH2),significant membranolytic effect,,,,,,,,
Ac-WKKIKKIIKKIKKI-NH2 [pepI2],,2,2,16,16,,,,
Ac-WKKLKKLLKKL-NH2 [pepD3],significant membranolytic effect,16,,,,2,2,2,2
Ac-WKKLKKLLKKLKKL-NH2 [pepD2],significant membranolytic effect,16,,,,1,1,2,2
